Data published in patent US7745547B1, “Multi-arm cyclic or cubic siloxane-based formulations for drug delivery” (Becton, Dickinson and Company, priority 2005, dated 2010).

Experiments:
[1] = Drug release time study of encapsulated cisplatin by UV-vis absorbance at 300 nm; type: physicochemical
Description: A drug release time study was performed on encapsulated cisplatin (i.e., cisplatin/delivery vehicle) to assess the time for complete release of the encapsulated drug from the delivery vehicle. UV-vis spectroscopy was used to monitor the change in absorbance in peaks associated with cisplatin over time.
5 mg of cisplatin was placed in a glass vial and 10 mL of water (10 mL) added. The vial was sonicated in a Bransonic Ultrasonic Cleaner (115 v, 50/60 HZ, […] transducer) for about 5 min to completely dissolve the cisplatin. 50 mg of the delivery vehicle (PEG400)4D4^M was placed in a separate vial and 10 mL of water added. Upon shaking, the polymer dissolved immediately. The cisplatin solution was added to the delivery vehicle solution drop-wise with sonication. After the mixing was complete, a UV-vis spectrum was recorded. The solution was further sonicated for 1 hr and monitored with UV-vis spectroscopy at intervals of 10 min to examine the encapsulation process. After 1 hr, sonication was stopped and incubation was allowed to continue at room temperature without shaking. UV-vis spectra were recorded at 20 min intervals for one hr, followed by 3 hours intervals for the next 24 hrs. After 24 hrs, UV-vis spectra were recorded at random intervals for several days to monitor the release time of the cisplatin. For reference, another solution of pure cisplatin was prepared at a similar concentration, and UV-vis spectra were recorded for the un-encapsulated cisplatin solution at similar intervals as with the encapsulated cisplatin solution. In about 200 hours ([…]), the absorbance of the encapsulated cisplatin solution dropped to the same level as that of the un-encapsulated cisplatin solution. This was viewed as the complete release of encapsulated cisplatin from the vehicle. All data provided in Table 4 were collected at a wavelength of 300 nm.

[2] = Microscopy of dried drops: crystal formation as evidence of cisplatin encapsulation; type: physicochemical; details: one drop on glass slide, room temperature, open air
Source text: The cisplatin/delivery vehicle samples were also examined under a microscope to further investigate the encapsulation. Specifically, a comparison was made between encapsulated and un-encapsulated cisplatin.
The cisplatin/delivery vehicle samples were also examined under a microscope to further investigate the encapsulation. A comparison was made between encapsulated and un-encapsulated cisplatin.

[3] = one drop of ethanol solution dried on glass slide
Source text: To verify the encapsulation, samples were examined under the microscope and a comparison was made between the paclitaxel solution alone and the paclitaxel/delivery vehicle solution. In particular, one drop of each solution was placed on a separate glass slide and the ethanol was allowed to evaporate at room temperature in the open-air. After complete evaporation of the ethanol, dry sample spots were covered and sealed by cover slides and both slides were examined under microscope.
For microscopic analysis, one drop of each solution (i.e., paclitaxel alone paclitaxel/delivery vehicle solutions) and was placed on a separate glass slide. The ethanol was allowed to evaporate at room temperature in the open-air. After complete evaporation of the ethanol, dry sample spots were covered and sealed by cover slides and both slides were examined under the microscope.

N.N.[Cl][Pt][Cl] [un-encapsulated cisplatin, cisplatin]
Absorbance ([1]; time 0.00 hrs): 0.18 | Absorbance ([1]; time 0.17 hrs): 0.17 | Absorbance ([1]; time 0.33 hrs): 0.16 | Absorbance ([1]; time 0.50 hrs): 0.16 | Absorbance ([1]; time 0.67 hrs): 0.16 | Absorbance ([1]; time 0.83 hrs): 0.16 | Absorbance ([1]; time 1.00 hrs): 0.16 | Absorbance ([1]; time 1.33 hrs): 0.16 | Absorbance ([1]; time 1.67 hrs): 0.16 | Absorbance ([1]; time 2.00 hrs): 0.16 | Absorbance ([1]; time 3.00 hrs): 0.16 | Absorbance ([1]; time 21.00 hrs): 0.15 | Absorbance ([1]; time 24.00 hrs): 0.15 | Absorbance ([1]; time 42.00 hrs): 0.15 | Absorbance ([1]; time 45.00 hrs): 0.15 | Absorbance ([1]; time 72.00 hrs): 0.15 | Absorbance ([1]; time 88.00 hrs): 0.15 | Absorbance ([1]; time 120.00 hrs): 0.15 | Absorbance ([1]; time 174.00 hrs): 0.15 | Absorbance ([1]; time […]): 0.15 | crystal formation as water evaporates (microscope) [2]: formed crystals

CC(=O)O[C@H]1C(=O)[C@@]2(C)[C@H]([C@H](OC(=O)c3ccccc3)[C@]3(O)C[C@H](OC(=O)[C@H](O)[C@@H](NC(=O)c4ccccc4)c4ccccc4)C(C)=C1C3(C)C)[C@]1(OC(C)=O)CO[C@@H]1C[C@@H]2O [un-encapsulated paclitaxel, paclitaxel]
fluorescence when exposed to fluorescent light (microscope) [3]: shows fluorescence activity
